pEC50, pIC50: −log10 of the molar value. Like-named read-outs stand apart in the source and are kept apart here.
What was measured:
MetRS (T. brucei) = MetRS (T. brucei) (Trypanosoma brucei brucei, UniProt Q38C91); assay: MetRS (T. brucei) ATP depletion assay using Kinase-Glo; type: biochemical
T. brucei = assay: Growth inhibition assay of T. brucei cell cultures (Alamar Blue, 48 h); type: cell-based
[1] = Trypanosoma brucei; read-out: B) T. brucei EC50

MetRS (T. brucei), sequence (Q38C91 entry or part of it): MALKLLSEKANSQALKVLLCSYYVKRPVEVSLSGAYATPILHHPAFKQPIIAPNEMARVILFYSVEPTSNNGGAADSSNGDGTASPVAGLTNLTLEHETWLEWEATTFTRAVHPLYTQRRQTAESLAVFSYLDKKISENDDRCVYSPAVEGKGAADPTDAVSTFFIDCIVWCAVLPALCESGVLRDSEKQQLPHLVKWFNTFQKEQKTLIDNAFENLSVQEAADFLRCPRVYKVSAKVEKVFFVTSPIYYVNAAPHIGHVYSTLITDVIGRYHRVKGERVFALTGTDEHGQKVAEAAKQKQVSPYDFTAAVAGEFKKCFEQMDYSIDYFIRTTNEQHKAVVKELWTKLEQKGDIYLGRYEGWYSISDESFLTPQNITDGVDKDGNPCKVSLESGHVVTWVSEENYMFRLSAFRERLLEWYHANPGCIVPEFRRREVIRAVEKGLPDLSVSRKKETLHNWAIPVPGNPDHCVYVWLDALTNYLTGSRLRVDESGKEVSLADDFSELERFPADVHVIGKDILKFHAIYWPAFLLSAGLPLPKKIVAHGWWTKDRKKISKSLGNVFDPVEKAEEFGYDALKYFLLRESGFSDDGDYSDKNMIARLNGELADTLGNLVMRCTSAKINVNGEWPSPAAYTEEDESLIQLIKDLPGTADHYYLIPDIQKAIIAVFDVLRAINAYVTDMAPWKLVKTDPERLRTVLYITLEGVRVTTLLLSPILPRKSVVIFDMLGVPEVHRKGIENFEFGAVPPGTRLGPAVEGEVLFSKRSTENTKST

Structure (SMILES)	pIC50 (MetRS (T. brucei))	pEC50 (T. brucei; [1])	pEC50 (T. brucei; read-out: B) T. brucei EC50)
Clc1cc(Cl)cc(CNCCCc2nc3ccc(Cl)cc3[nH]2)c1 [Compound 1832, [3-(6-chloro-1H-1,3-benzodiazol-2-yl)propyl][(3,5-dichlorophenyl)methyl]amine]	6.61	5.67	–
Clc1cc(Cl)cc(CN[C@@H]2CCN(c3nc4ccc(Cl)nc4[nH]3)C2)c1 [Compound 1847, (3R)-1-{5-chloro-3H-imidazo[4,5-b]pyridin-2-yl}-N-[(3,5-dichlorophenyl)methyl]pyrrolidin-3-amine]	6.16	5.05	–
Clc1cc(Cl)cc(CN[C@@H]2CCC[C@H](c3nc4nc(Cl)ccc4[nH]3)C2)c1 [Compound 1854, (1R,3S)-3-(5-chloro-1H-imidazo[4,5-b]pyridin-2-yl)-N-(3,5-dichlorobenzyl)cyclohexanamine]	6.97	6.24	–
Clc1cc(Cl)c(OC2CC2)c(CN[C@H]2CCCN(c3nc4nc(Cl)ccc4[nH]3)C2)c1 [Compound 1930, (S)-1-(5-chloro-1H-imidazo[4,5-b]pyridin-2-yl)-N-(3,5-dichloro-2-cyclopropoxybenzyl)piperidin-3-amine]	6.41	5.51	–
CC[C@@H](Cc1nc2ccc(Cl)cc2[nH]1)NCc1cc(Cl)cc(Cl)c1 [Compound 1827, [(2S)-1-(6-chloro-1H-1,3-benzodiazol-2-yl)butan-2-yl][(3,5-dichlorophenyl)methyl]amine]	6.41	5.30	–
O=C1CN(C(=O)c2ccc3ccccc3c2)CCN1Cc1nc2ccccc2[nH]1 [Compound 1760, 1-((1H-benzo[d]imidazol-2-yl)methyl)-4-(2-naphthoyl)piperazin-2-one]	< 5.00	< 5.00	–
O=C(Cc1ccc(Cl)cc1Cl)NCc1nc2ccc(Cl)nc2[nH]1 [Compound 1876, N-({5-chloro-3H-imidazo[4,5-b]pyridin-2-yl}methyl)-2-(2,4-dichlorophenyl)acetamide]	6.43	< 4.70	–
COC(=O)N(CCCNc1nc2ccc(F)nc2[nH]1)Cc1cc(Cl)cc(Cl)c1 [Compound 1964, methyl 3,5-dichlorobenzyl3-(5-fluoro-3H-imidazo[4,5-b]pyridin-2-ylamino)propylcarbamate]	7.77	7.44	–
NC(Cc1nc2ccccc2[nH]1)C(=O)NCCc1ccc(Cl)cc1Cl (stereo not shown) [Compound 1795, N-(2,4-dichlorophenethyl)-2-amino-3-(1H-benzo[d]imidazol-2-yl)propanamide]	< 5.00	4.91	–
CC(=O)N(Cc1cc(Cl)cc(Cl)c1)C1CCCC(c2nc3ccccc3[nH]2)C1 (stereo not shown) [Compound 1816, N-(3-(1H-benzo[d]imidazol-2-yl)cyclohexyl)-N-(3,5-dichlorobenzyl) acetamide]	< 5.00	5.06	–
Clc1cc(Cl)cc(CNC2CN(c3nc4nc(Cl)c(Br)cc4[nH]3)C2)c1 [Compound 1865, 1-{6-bromo-5-chloro-1H-imidazo[4,5-b]pyridin-2-yl}-N-[(3,5-dichlorophenyl)methyl]azetidin-3-amine]	< 5.00	5.18	–
Clc1cc(Cl)cc(CN[C@@H]2CCCN(c3nc4nc(Cl)ccc4[nH]3)C2)c1 [Compound 1855, (R)-1-(5-chloro-1H-imidazo[4,5-b]pyridin-2-yl)-N-(3,5-dichlorobenzyl) piperidin-3-amine]	6.72	6.00	–
O=C(Cc1ccc(Cl)cc1Cl)N1CCCC(c2nc3ccccc3[nH]2)C1 (stereo not shown) [Compound 1731, 1-(3-(1H-benzo[d]imidazol-2-yl)piperidin-1-yl)-2-(2,4-dichlorophenyl) ethanone]	5.30	< 4.70	–
CN(CCNCc1cc(Cl)cc(Cl)c1)c1nc2nc(Cl)c(Br)cc2[nH]1 [Compound 1894, 6-bromo-5-chloro-N-(2-{[(3,5-dichlorophenyl)methyl]amino}ethyl)-N-methyl-3H-imidazo[4,5-b]pyridin-2-amine]	6.75	5.54	–
Clc1cc(Cl)cc(CN2CCCC(Cc3nc4nc(Cl)ccc4[nH]3)C2)c1 (stereo not shown) [Compound 1814, 5-chloro-2-((1-(3,5-dichlorobenzyl)piperidin-3-yl)methyl)-1H-imidazo[4,5-b]pyridine]	5.47	5.14	–
CC(=O)N(Cc1ccc(Cl)cc1Cl)C1CCCC(c2nc3nc(F)ccc3[nH]2)C1 (stereo not shown) [Compound 1836, N-(2,4-dichlorobenzyl)-N-(3-(5-fluoro-1H-imidazo[4,5-b]pyridin-2-yl)cyclohexyl)acetamide]	5.84	5.12	–
CC(Cc1nc2cc3ccccc3cc2[nH]1)NCc1cc(Cl)cc(Cl)c1 (stereo not shown) [Compound 1826, [(3,5-dichlorophenyl)methyl](1-{1H-naphtho[2,3-d]imidazol-2-yl}propan-2-yl)amine]	6.34	5.10	–
N[C@H](CC(=O)NCc1nc2ccccc2[nH]1)Cc1ccc(Cl)cc1Cl [Compound 1726, (3S)-3-amino-N-(1H-1,3-benzodiazol-2-ylmethyl)-4-(2,4-dichlorophenyl)butanamide]	5.62	5.10	–

Structure (SMILES)	pIC50 (MetRS (T. brucei))	pEC50 (T. brucei; [1])	pEC50 (T. brucei; read-out: B) T. brucei EC50)
NC(CC(=O)NCc1cc(Cl)cc(Cl)c1)c1nc2ccc(Cl)nc2[nH]1 (stereo not shown) [Compound 1969, 3-amino-3-(5-chloro-3H-imidazo[4,5-b]pyridin-2-yl)-N-(3,5-dichlorobenzyl)propanamide]	6.11	5.10	–
COc1c(Br)cc(Br)cc1CN[C@H]1CCCN(c2nc3nc(Cl)ccc3[nH]2)C1 [Compound 1909, (S)-1-(5-chloro-1H-imidazo[4,5-b]pyridin-2-yl)-N-(3,5-dibromo-2-methoxybenzyl)piperidin-3-amine]	7.70	6.48	–
Fc1ccc2[nH]c(C3CCCN(CCc4cc(Cl)cc(Cl)c4)C3)nc2n1 (stereo not shown) [Compound 1798, 5-fluoro-2-(1-(3,5-dichlorophenethyl)piperidin-3-yl)-1H-imidazo[4,5-b]pyridine]	< 5.00	5.91	–
N[C@@H](CC(=O)NCc1nc2ccccc2[nH]1)Cc1ccc(F)cc1 [Compound 1703, (3R)-3-amino-N-(1H-1,3-benzodiazol-2-ylmethyl)-4-(4-fluorophenyl)butanamide]	4.92	< 5.00	–
O=C(CCOc1ccc(Cl)cc1Cl)NCc1nc2cccnc2[nH]1 [Compound 1704, 3-(2,4-dichlorophenoxy)-N-{3H-imidazo[4,5-b]pyridin-2-ylmethyl}propanamide]	6.55	5.06	–
O=C(Cc1cc(Cl)cc(Cl)c1)N1CCCC(c2nc3cc(Cl)c(F)cc3[nH]2)C1 (stereo not shown) [Compound 1746, 1-(3-(5-chloro-6-fluoro-1H-benzo[d]imidazol-2-yl)piperidin-1-yl)-2-(3,5-dichlorophenyl)ethanone]	6.86	5.48	–
O=C(Cc1ccc(Cl)cc1Cl)NCc1nc2ccc(Br)cc2[nH]1 [Compound 1874, N-[(6-bromo-1H-1,3-benzodiazol-2-yl)methyl]-2-(2,4-dichlorophenyl)acetamide]	7.29	5.44	–
CC(=O)N(Cc1cc(Cl)cc(Cl)c1)C1CCCC(c2nc3ncccc3[nH]2)C1 (stereo not shown) [Compound 1818, N-(3-(1H-imidazo[4,5-b]pyridin-2-yl)cyclohexyl)-N-(3,5-dichlorobenzyl) acetamide]	5.10	< 4.70	–
OC1NC(Cc2ccc(Cl)cc2Cl)=CN1Cc1nc2ccccc2[nH]1 (stereo not shown) [Compound 1936, 3-((1H-benzo[d]imidazol-2-yl)methyl)-5-(2,4-dichlorobenzyl)-2,3-dihydro-1H-imidazol-2-ol]	7.19	5.74	–
Clc1cc(Cl)cc(CNC2CCCC(c3nc4ccccc4[nH]3)C2)c1 (stereo not shown) [Compound 1815, 3-(1H-benzo[d]imidazol-2-yl)-N-(3,5-dichlorobenzyl)cyclohexanamine]	< 5.00	5.39	–
O=C(Cc1nc2cc(Cl)cc(Cl)c2[nH]1)NCc1nc2ccccc2[nH]1 [Compound 1764, N-((1H-benzo[d]imidazol-2-yl)methyl)-2-(5,7-dichloro-1H-benzo[d]imidazol-2-yl)acetamide]	< 5.00	< 4.70	–
CCCOc1c(Cl)cc(Cl)cc1CN[C@H]1CCCN(c2nc3nc(Cl)ccc3[nH]2)C1 [Compound 1927, (S)-1-(5-chloro-1H-imidazo[4,5-b]pyridin-2-yl)-N-(3,5-dichloro-2-propoxybenzyl)piperidin-3-amine]	7.33	6.08	–
CC(=O)N(Cc1cc(Cl)cc(Cl)c1)[C@H]1CCCN(c2nc3nc(F)ccc3[nH]2)C1 [Compound 1901, (S)—N-(3,5-dichlorobenzyl)-N-(1-(5-fluoro-1H-imidazo[4,5-b]pyridin-2-yl)piperidin-3-yl)acetamide]	6.16	5.29	–
COc1ccc(Oc2nc(O)nc(NCc3nc4ccc(F)nc4[nH]3)n2)c(Cl)c1 [Compound 1885, 4-(2-chloro-4-methoxyphenoxy)-6-[({5-fluoro-3H-imidazo[4,5-b]pyridin-2-yl}methyl)amino]-1,3,5-triazin-2-ol]	5.82	5.23	–
O=C(/C=C/Oc1ccc(Cl)cc1Cl)NNc1nc2ccccc2[nH]1 [Compound 1765, (2E)-N′-(1H-1,3-benzodiazol-2-yl)-3-(2,4-dichlorophcnoxy)prop-2-enehydrazide]	< 5.00	< 4.70	–
CCOc1c(Br)cc(Cl)cc1CN[C@H]1CCCN(c2nc3nc(Cl)ccc3[nH]2)C1 [Compound 1937, (S)—N-(3-bromo-5-chloro-2-ethoxybenzyl)-1-(5-chloro-1H-imidazo[4,5-b]pyridin-2-yl)piperidin-3-amine]	7.72	6.64	–
Clc1cc(Cl)cc(CO[C@H]2CCCN(c3nc4nc(Cl)c(Br)cc4[nH]3)C2)c1 [Compound 1904, (S)-6-bromo-5-chloro-2-(3-((3,5-dichlorobenzyl)oxy)piperidin-1-yl)-1H-imidazo[4,5-b]pyridine]	< 5.00	< 4.70	–
O=C(Nc1cccc(-c2nc3ccc(Cl)cc3[nH]2)c1)c1cc(Cl)cc(Cl)c1 [Compound 1953, 3,5-dichloro-N-[3-(6-chloro-1H-1,3-benzodiazol-2-yl)phenyl]benzamide]	< 5.00	6.04	6.09

Source: patent US10913736B2 (UNIVERSITY OF WASHINGTON, priority 2014, dated 2021)
